Measurements: US20090202660A1, “Agents and Methods for Osteogenic Oxysterols Inhibition of Oxidative Stress on Osteogenic Cellular Differentiation” (The Regents of the University of California, priority 2005, published 2009)

How the values were obtained:
osteocalcin mRNA = experiment: Northern blotting for osteocalcin mRNA in M2 cells; assay type: cell-based, mouse; details: for osteocalcin expression, synergy with osteogenic oxysterols: BMP 50 ng/ml with 22S+20S (SS, 2.5 μM), eight days
Procedure: RNA isolation and Northern blot analysis—Following treatment of cells under appropriate experimental conditions, total RNA was isolated using the RNA isolation kit from Stratagene (La Jolla, Calif., U.S.A.). Total RNA ([…]) was run on a 1% agarose/formaldehyde gel and transferred to Duralon-UV membranes (Strategene, Calif., U.S.A.) and cross-linked with UV light. The membranes were hybridized overnight at 60 degree C. with ^32P-labeled mouse osteocalcin cDNA probe, mouse lipoprotein lipase (LPL), mouse adipocyte protein 2 (aP2) PCR-generated probes, human 28S or 18S rRNA probes obtained from Geneka Biotechnology (Montreal, Quebec, Canada) and Maxim Biotech (San Francisco, Calif., U.S.A.), respectively. The PCR products were generated using primer sets synthesized by Invitrogen (Carlsbad, Calif., U.S.A.) with the following specifications: mouse aP2 gene (accession no. M13261); sense (75-95) 5′-[…]-3′, antisense (362-383) 5′-[…]-3′, generating a PCR product of 309 base pairs. Mouse LPL (accession no. XM—134193); sense (1038-1058) 5′-[…]-3′, antisense (1816-1836) 5′-[…]-3′, generating a PCR product of 799 base pairs. […] Following hybridization, the blots were washed twice at room temperature with 2×SSC+0.1% SDS, and then twice at 60 degree C. with 0.5×SSC+0.1% SDS, and exposed to X-ray film. The extent of gene induction was determined by densitometry.
After 4 and 8 days, total RNA from duplicate samples was isolated and analyzed for osteocalcin (Osc) and 28S rRNA expression by Northern blotting as described. FIG. 3E is a radiogram of Northern blotting for osteocalcin mRNA in M2 cells exposed to a control or combination of oxysterols for 4 or 8 days. FIG. 3F is a bar graph depicting the relative demsometric units of osteocalcin mRNA in M2 cells exposed to a control or combination of oxysterols for 4 or 8 days. Data from densitometric analysis of the Northern blot is shown in (F) as the average of duplicate samples, normalized to 28S rRNA.
RNA Isolation and Northern Blot Analysis—Total RNA was isolated using the RNA isolation kit from Stratagene (La Jolla, Calif., USA). Northern blotting and analysis of osteocalcin mRNA and 18S rRNA expression was performed as previously described (23).

marrow stromal cells = experiment: Markers of osteogenic differentiation in marrow stromal cells (ALP, osteocalcin mRNA, mineral formation); assay type: cell-based, mouse; details: for osteogenic property (markers of osteoblastic differentiation): alone or in combination with originally described oxysterols
Procedure: Next, a combination of 22R and 20S oxysterols (RS, 2.5 μM each) were added in the presence or absence of SC as indicated. After 3 days, ALP activity was measured as described earlier. […] (B) M2 cells were treated as described in (A) and after 10 days matrix mineralization in cultures was quantified by a ^45Ca incorporation assay as described earlier. […] (C) M2 cells were pretreated with 20 μM SC for 4 hours, followed by the addition of RS in the presence or absence of SC as described above. After 8 days, total RNA was isolated and analyzed for osteocalcin (Osc) and […] expression by Northern blotting as previously described. Data from densitometric analysis of the Northern blot is shown in (D) as the average of duplicate samples, normalized to 18S rRNA. (E) M2 cells at confluence were pretreated for 2 hours with control vehicle (C), or PLA2 inhibitors ACA (25 μM) and AACOCF3 (AAC, 20 μM), in osteogenic medium. Next, a combination of 22R and 20S oxysterols (RS, 2.5 μM) was added in the presence or absence of the inhibitors as indicated. After 3 days, ALP activity was measured as previously described. […] (F) M2 cells were treated as described in (E). After 10 days, matrix mineralization in cultures was quantified using a ^45Ca incorporation assay as previously described. Results from a representative of three experiments are shown, reported as the mean of quadruplicate determinations±SD, normalized to protein concentration (p<0.01 for RS vs. RS+ACA and RS+AAC).
The purpose of the study was to identify other osteogenic and anti-adipogenic oxysterols based on the chemical structure of previously identified oxysterols. We tested the ability of such candidate oxysterol molecules to induce the formation of osteoblastic cells in cultures of marrow stromal cells, which are progenitors of osteoblastic cells that make bone. In order to assess osteogenic differentiation of cells, one or more markers of osteogenic differentiation were measured in untreated cells and cells treated with the test oxysterols. These markers included: alkaline phosphatase activity, osteocalcin mRNA expression and mineral formation in cultures of marrow stromal cells. Activation of either one or more than one marker by a single or combination oxysterols is indicative of their osteogenic property.

[1] = test system: M2-10B4 marrow stromal cells; experiment: Colorimetric alkaline phosphatase (ALP) activity assay on whole cell extracts; details: for Enzyme Activity (units/mg total cellular protein) ± SD: alkaline phosphatase, oxysterols 5 μM, 4 days, untreated 6 ± 3; for inhibition of oxysterol-induced alkaline phosphatase activity: M2 cells pretreated with inhibitor, then 22R+20S oxysterols, 3 days; for alkaline phosphatase activity, synergy with oxysterols: marrow stromal cells, BMP with oxysterols
Procedure: Alkaline phosphatase activity assay: Colorimetric alkaline phosphatase (ALP) activity assay on whole cell extracts was performed as previously described.
Test 1: M2 cells at confluence were treated with control vehicle (C), or 10 µM oxysterols, in an osteogenic medium consisting of RPMI 1640 to which 10% fetal bovine serum (FBS), 50 µg/ml ascorbate and 3 mM beta-glycerophosphate (□GP) were added. After 3 days of incubation, alkaline phosphatase (ALP) activity was determined in cell homogenates by a colorimetric assay.
M2 cells at confluence were treated in osteogenic medium with control vehicle (C) or a combination of 22R and 20S oxysterols, at the indicated concentrations. ALP activity was measured after 3 days as described above.
Test 2: M2 cells were grown in RPMI medium containing 10% fetal bovine serum (FBS). At confluence, the cells were treated in RPMI containing 5% FBS plus ascorbate at 50 μg/ml and β-glycerophosphate at 3 mM to induce osteoblastic differentiation. Adipogenic differentiation was induced by treating the cells in growth medium plus 10˜M troglitazone. A vehicle (C) or oxysterol treatment was applied to cells in a variety of doses (in μM): 20S-Hydroxycholesterol, 25-Hydroxycholesterol, 22R-Hydroxycholesterol; 22S-Hydroxycholesterol; 7-ketocholesterol. Cells were always treated at 90% confluence. After 4 days, alkaline phosphatase activity was determined in whole cell lysates and normalized to protein. Alternatively, MSC cultures were prepared and treated with oxysterols as described above. Cells were treated at 90% confluence with the combination of 22R-Hydroxycholesterol and 20S-Hydroxycholesterol, each at 5 μM, for 4 to 96 hours. The oxysterols where removed and fresh media without oxysterols was added for a total duration of 96 hours. Alkaline phosphatase activity was measured in whole cell extracts and normalized to protein.
Cells were treated with the oxysterols (5 μM) for 4 days after which they were collected and analyzed by colorimetric assay for alkaline phosphatase activity. Results from a representative experiment are shown as the average of quadruplicate determination ±SD.

[2] = test system: M2-10B4 marrow stromal cells; experiment: Matrix mineralization (45Ca incorporation assay, von Kossa staining); assay type: cell-based, mouse; details: for inhibition of oxysterol-induced mineralization: M2 cells pretreated with inhibitor, then 22R+20S oxysterols, 10 days; for mineralization, synergy with oxysterols: marrow stromal cells, BMP with oxysterols
Procedure: Von Kossa and oil red O staining—Matrix mineralization in cell monolayers was detected by silver nitrate staining as previously described. Oil red O staining for detection of adipocytes was performed as previously described.
^45Ca incorporation assay—Matrix mineralization in cell monolayers was quantified using the ^45Ca incorporation assay as previously described.
After 14 days, mineralization was identified by a von Kossa staining, which appears black. FIG. 3C is a depiction of von Kossa staining of M2 cells exposed to various conditions. […]

## CC(C)CCC[C@@H](C)[C@H]1CC[C@H]2[C@@H]3CC=C4[C@@H](O)[C@@H](O)CC[C@]4(C)[C@H]3CC[C@]12C [4beta-hydroxycholesterol]
Osteocalcin mRNA; M2-10B4 cells treated for eight days, FIG. 20
  osteocalcin mRNA: moderate increase

## CC(C)CCC[C@@H](C)[C@H]1CC[C@H]2[C@@H]3[C@H](O)C=C4C[C@@H](O)CC[C@]4(C)[C@H]3CC[C@]12C [7alpha-hydroxycholesterol, reference compound]
Marrow stromal cells
  osteogenic property (markers of osteoblastic differentiation): did not appear to affect any measures of osteoblastic differentiation

## CC(C)C(O)CC[C@@H](C)[C@H]1CC[C@H]2[C@@H]3CC=C4C[C@@H](O)CC[C@]4(C)[C@H]3CC[C@]12C (some centres unmarked) [24-hydroxycholesterol]
Marrow stromal cells
  osteogenic property (markers of osteoblastic differentiation): osteoinductive
[1]
  Enzyme Activity (units/mg total cellular protein) ± SD: 250 ± 20 units/mg total cellular protein

## C[C@H](CC[C@@H]1OC1(C)C)[C@H]1CC[C@H]2[C@@H]3CC=C4C[C@@H](O)CC[C@]4(C)[C@H]3CC[C@]12C [24S,25-epoxycholesterol]
Marrow stromal cells
  osteogenic property (markers of osteoblastic differentiation): osteoinductive
[1]
  Enzyme Activity (units/mg total cellular protein) ± SD: 1,588 ± 19 units/mg total cellular protein

## C[C@@H](CO)CCC[C@@H](C)[C@H]1CC[C@H]2[C@@H]3CC=C4C[C@@H](O)CC[C@]4(C)[C@H]3CC[C@]12C [26-hydroxycholesterol]
Marrow stromal cells
  osteogenic property (markers of osteoblastic differentiation): osteoinductive
[1]
  Enzyme Activity (units/mg total cellular protein) ± SD: 655 ± 93 units/mg total cellular protein

## CCCCC/C=C\C/C=C\C/C=C\C/C=C\CCCC(=O)C(F)(F)F [AACOCF3, reference compound]
[2]
  inhibition of oxysterol-induced mineralization: inhibited
[1]
  inhibition of oxysterol-induced alkaline phosphatase activity: inhibited

## CCCCCc1ccc(/C=C/C(=O)Nc2ccccc2C(=O)O)cc1 [ACA, reference compound]
[2]
  inhibition of oxysterol-induced mineralization: inhibited
[1]
  inhibition of oxysterol-induced alkaline phosphatase activity: inhibited

## CS(=O)(=O)Nc1ccc([N+](=O)[O-])cc1OC1CCCCC1 [NS-398, reference compound]
Marrow stromal cells; M2 cells
  highest non-toxic dose: 20 µM
Marrow stromal cells; SC-560 at 1-20 μM, NS-398 at 20 μM
  inhibition of the osteogenic effects of oxysterol combinations: negligible inhibitory effects

## COc1cccc(-c2cc(=O)c3ccccc3o2)c1N [PD98059, reference compound]
[2]
  inhibition of oxysterol-induced mineralization: inhibited
Osteocalcin mRNA; M2 cells pretreated with inhibitor, then 22R+20S oxysterols, 8 days
  inhibition of oxysterol-induced osteocalcin gene expression: not

## O=S(=O)(c1ccccc1)N(CC(F)(F)F)c1ccc(C(O)(C(F)(F)F)C(F)(F)F)cc1 [TO, TO-901317, reference compound]
[2]; M2 cells in osteogenic medium, 10-14 days
  mineralization: did not induce
Osteocalcin mRNA; M2 cells in osteogenic medium, up to 14 days
  osteocalcin gene expression: did not induce
[1]; M2 cells, TO at 1-10 μM
  inhibition of alkaline phosphatase activity: dose-dependent inhibition
[1]; M2 cells, ligands used at 10 μM, control 18±2, ±SD
  alkaline phosphatase activity: 3±0.5 activity units/mg protein

## BMP14: bone morphogenic protein 14
[2]
  mineralization, synergy with oxysterols: synergistically induced
Osteocalcin mRNA
  osteocalcin expression, synergy with osteogenic oxysterols: synergistic induction
[1]
  alkaline phosphatase activity, synergy with oxysterols: synergistically induced

B1: BMP7: bone morphogenic protein 7 (protein, UniProt P18075 293-431, looked up)
Bone morphogenetic protein 7: STGSKQRSQNRSKTPKNQEALRMANVAENSSSDQRQACKKHELYVSFRDLGWQDWIIAPEGYAAYYCEGECAFPLNSYMNATNHAIVQTLVHFINPETVPKPCCAPTQLNAISVLYFDDSSNVILKKYRNMVVRACGCH
[2]
  mineralization, synergy with oxysterols: synergistically induced
Osteocalcin mRNA
  osteocalcin expression, synergy with osteogenic oxysterols: synergistic induction
[1]
  alkaline phosphatase activity, synergy with oxysterols: synergistically induced
